Measured values published in article PMC9000610, “Computational Analysis and Biological Activities of Oxyresveratrol Analogues, the Putative Cyclooxygenase-2 Inhibitors” (Molecules, 2022).

Experiments:
human COX-2 = molecular target: T1, human COX-2 (Homo sapiens, UniProt P35354); experiment: Human COX-2 inhibitor screening assay kit (Cayman); assay type: biochemical; conditions: mean ± standard deviation of three replicates; read-out: COX-2 Inhibition IC50
T1 construct: purchased Cayman Chemicals USA Item no; 701080
T1 sequence (P35354 18-604): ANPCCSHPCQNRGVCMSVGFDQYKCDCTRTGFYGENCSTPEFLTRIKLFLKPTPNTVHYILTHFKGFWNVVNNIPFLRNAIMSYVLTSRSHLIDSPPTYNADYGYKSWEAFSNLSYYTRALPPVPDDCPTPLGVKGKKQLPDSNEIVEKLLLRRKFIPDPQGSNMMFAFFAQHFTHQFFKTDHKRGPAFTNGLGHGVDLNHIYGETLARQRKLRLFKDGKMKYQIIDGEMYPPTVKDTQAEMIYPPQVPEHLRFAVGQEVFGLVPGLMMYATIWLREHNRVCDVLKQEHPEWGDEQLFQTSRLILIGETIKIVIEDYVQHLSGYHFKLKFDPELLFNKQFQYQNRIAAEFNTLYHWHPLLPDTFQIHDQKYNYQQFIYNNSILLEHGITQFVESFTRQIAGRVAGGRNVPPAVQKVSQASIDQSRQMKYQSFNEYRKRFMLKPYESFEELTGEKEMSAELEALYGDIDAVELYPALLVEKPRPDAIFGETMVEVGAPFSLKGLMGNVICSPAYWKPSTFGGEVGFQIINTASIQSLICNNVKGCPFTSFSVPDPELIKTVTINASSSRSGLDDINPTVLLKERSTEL
Procedure: COX-2 enzyme and tested compounds at various concentrations were prepared in the reaction buffer (0.1 M Tris-HCl, pH 8.0, containing 5 mM EDTA and 2 mM phenol) containing heme. […] The quenched reactions were incubated at room temperature for 5 min to produce prostaglandin F2α. Dilutions were made with the ELISA buffer and measured by using a PGE2 ELISA kit according to the manufacturer’s instruction.

in vitro = assay type: cell-based, human; conditions: human
Procedure: (§1) The effect of oxyresveratrol and its derivatives on the viability of normal human fibroblasts (MRC-5 cells) were determined by MTT assay. MRC-5 cells were diluted to 2 × 10^5 cells/mL with a complete medium. The cells (100 µL) were seeded in the wells of the sterile 96-well cell culture plate. After incubation at 37 °C in CO2 for 24 h, the cells were treated with different concentrations of sample compounds (100 µL) and doxorubicin as a positive control (100 µL). After incubation for 48 h, MTT solution (20 µL of 5 mg/mL) was added to each well and incubated for 3 h. After that, the complete medium was removed. Then, the cells were lysed with DMSO (100 µL). The yellow MTT dye was reduced by succinic dehydrogenase in the mitochondria of viable cells to purple formazan crystals. After that, absorbance (OD) was measured by a microplate reader at 570 nm. The percentage of cytotoxicity was determined with Equation (1) below. (1) Cell viability(%)=OD of treated cells/OD of control cells×100^

MRC-5 cells = experiment: in vitro; assay type: cell-based, human
Procedure: as §1

Row | Compound | IC50 (human COX-2) | CC50 at 48 h (in vitro) | cytotoxicity to normal cell lines (in words) (MRC-5 cells) | melting point
1 | Oc1cc(O)cc(/C=C/c2ccc(O)cc2O)c1 [Compound 1, trans-2,3′,4,5′-tetrahydroxystilbene] | 14.5 ± 2.04 µM | 57.5 ± 2.34 µM | – | –
2 | COc1cc(C=Cc2ccc(OC)cc2OC)cc(OC)c1 [Compound 2, 2,3′,4,5′-tetramethoxystilbene] | 25 ± 2.34 µM | 118 ± 2.69 µM | – | –
3 | CC(=O)Oc1cc(C=Cc2ccc(OC(C)=O)cc2OC(C)=O)cc(OC(C)=O)c1 [Compound 3, 2,3′,4,5′-tetraacetoxystilbene] | 23 ± 2.02 µM | 77.7 ± 3.07 µM | – | –
4 | Oc1cc(O)cc(CCc2ccc(O)cc2O)c1 [Compound 4, 2,3′,4,5′-tetrahydroxybibenzyl] | 11.5 ± 1.54 µM | 106 ± 3.86 µM | very low cytotoxicity | –
5 | COc1cc(CCc2ccc(OC)cc2OC)cc(OC)c1 [Compound 5, 2,3′,4,5′-tetramethoxybibenzyl] | 18.1 ± 2.07 µM | 130 ± 3.04 µM | – | 44.7 to 46.8 °C
6 | CC(=O)Oc1cc(CCc2ccc(OC(C)=O)cc2OC(C)=O)cc(OC(C)=O)c1 [Compound 6, 2,3′,4,5′-tetraacetoxybibenzyl] | 19 ± 2.01 µM | 121 ± 2.37 µM | – | 72.3 to 73.3 °C
7 | COc1cc(OC)cc(C(F)C(OC)c2ccc(OC)cc2OC)c1 (stereo not drawn) [Compound 8] | – | 53.04 ± 0.22 µM | – | –
8 | CC(=O)Oc1cc(OC(C)=O)cc(C(F)C(F)c2ccc(OC(C)=O)cc2OC(C)=O)c1 (stereo not drawn) [Compound 9] | – | 11.7 ± 1.35 µM | – | –
9 | COc1cccc2c1C(=O)c1c(O)c3c(c(O)c1C2=O)C[C@@](O)(C(=O)CO)C[C@@H]3O[C@H]1C[C@H](N)[C@H](O)[C@H](C)O1 [doxorubicin, reference compound] | – | > 100 µM | – | –
